The values below come from US9765075B2, “Substituted bridged urea analogs as sirtuin modulators” (GLAXOSMITHKLINE LLC, priority 2013, dated 2017).

This assay addresses T1, SIRT1 (Homo sapiens, UniProt Q96EB6).
T1 sequence (Q96EB6 1-747): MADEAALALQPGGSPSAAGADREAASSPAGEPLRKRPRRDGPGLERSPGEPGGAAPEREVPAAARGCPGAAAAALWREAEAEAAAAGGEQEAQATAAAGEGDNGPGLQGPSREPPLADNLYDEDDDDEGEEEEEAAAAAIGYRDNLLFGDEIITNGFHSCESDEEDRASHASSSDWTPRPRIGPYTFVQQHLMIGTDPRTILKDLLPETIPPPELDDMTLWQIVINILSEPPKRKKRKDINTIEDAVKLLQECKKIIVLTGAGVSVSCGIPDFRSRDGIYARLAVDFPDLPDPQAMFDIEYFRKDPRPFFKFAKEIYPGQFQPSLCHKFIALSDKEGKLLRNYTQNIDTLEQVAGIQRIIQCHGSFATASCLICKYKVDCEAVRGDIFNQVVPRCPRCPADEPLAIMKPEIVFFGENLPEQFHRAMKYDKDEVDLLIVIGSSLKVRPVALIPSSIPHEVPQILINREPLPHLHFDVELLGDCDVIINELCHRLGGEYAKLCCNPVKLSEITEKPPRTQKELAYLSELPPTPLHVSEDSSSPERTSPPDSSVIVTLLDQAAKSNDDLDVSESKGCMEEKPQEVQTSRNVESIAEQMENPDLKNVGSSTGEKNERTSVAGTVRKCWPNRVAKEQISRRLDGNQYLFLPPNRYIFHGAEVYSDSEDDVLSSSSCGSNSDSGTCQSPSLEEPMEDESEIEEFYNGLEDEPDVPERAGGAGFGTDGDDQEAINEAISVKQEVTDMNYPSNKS
Kind of assay: Trp mass spectrometry assay (SIRT1 activation). Format: biochemical. As to conditions: Trp peptide substrate; for Tryp AVG EC1.5 (μM): concentration of test compound that results in 150% activation of SIRT1; for Emax: percent maximum fold activation of SIRT1, read-out: Tryp % Fold Act. Put shortly:
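Activation is expressed as EC1.5, the concentration raising activity 50% above DMSO control, and as maximum percent of control. Mass-spec readout was OAADPR or deacetylated Trp peptide after a formic-acid-quenched 25-min, 25 °C reaction: 10 nM bacterially expressed His-SIRT1, 0.5 μM acetyl-p53-derived peptide, 120 μM NAD+, pH 7.5 HEPES with […].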

`COc1cc(NC(=O)N2c3nc(-c4cncc(Cl)c4)ccc3N3CCC[C@H]2C3)ncn1` [Example 405]: the “Tryp AVG EC1.5 (μM)” value was “A (EC1.5<1 μM)” and the Emax is at least 150%.
`O=C(Nc1ccccn1)N1c2nc(-c3cncc(Cl)c3)ccc2N2CCC[C@H]1C2` [Example 406]: the “Tryp AVG EC1.5 (μM)” value was “A (EC1.5<1 μM)” and the Emax was at least 150%.
Taken in the same sequence, the figures for `O=C(Nc1cccnc1)N1c2nc(-c3cccc(Cl)c3)ccc2N2CCC[C@H]1C2` [Example 407] were “A (EC1.5<1 μM)” and at least 150%.
In the case of `COc1cc(NC(=O)N2c3nc(-c4cccc(Cl)c4)ccc3N3CCC[C@H]2C3)ncn1` [Example 408], the “Tryp AVG EC1.5 (μM)” value is given as “A (EC1.5<1 μM)” and the Emax was at least 150%.
Regarding `O=C(Nc1ccncc1)N1c2nc(-c3cccc(Cl)c3)ccc2N2CCC[C@H]1C2` [Example 409], the “Tryp AVG EC1.5 (μM)” value is given as “A (EC1.5<1 μM)” and the Emax was at least 150%.
For `O=C(Nc1cncc(F)c1)N1c2nc(-c3ccnc(N4CCC(C(F)(F)F)C4)c3)ccc2N2CC[C@H]1C2` (stereo partly drawn) [Example 410], the “Tryp AVG EC1.5 (μM)” value is “A (EC1.5<1 μM)” and the Emax was at least 150%.
Taken in the same sequence, the figures for `O=C(Nc1cncc(F)c1)N1c2nc(-c3cncc(C(F)(F)F)c3)ccc2N2CCC[C@H]1C2` [Example 411] were “A (EC1.5<1 μM)” and at least 150%.
In the case of `O=C(Nc1cccnn1)N1c2nc(-c3cncc(C(F)(F)F)c3)ccc2N2CCC[C@H]1C2` [Example 412], the “Tryp AVG EC1.5 (μM)” value is on record as “A (EC1.5<1 μM)” and the Emax is at least 150%.
In the case of `Cc1noc(C)c1-c1ccc2c(n1)N(C(=O)Nc1cnccn1)[C@H]1CCN2C1` [Example 413], the “Tryp AVG EC1.5 (μM)” value was “C (EC1.5>25 μM)” and the Emax was under 150%.
Regarding `Cn1nccc1-c1ccc2c(n1)N(C(=O)Nc1cnccn1)[C@H]1CCN2C1` [Example 414], the “Tryp AVG EC1.5 (μM)” value is listed as “B (EC1.5 1-25 μM)” and the Emax is at least 150%.
`CS(=O)(=O)c1cccc(-c2ccc3c(n2)N(C(=O)Nc2cnccn2)[C@H]2CCN3C2)c1` [Example 415]: the “Tryp AVG EC1.5 (μM)” value is listed as “A (EC1.5<1 μM)” and the Emax was at least 150%.
For `O=C(Nc1cnccn1)N1c2nc(-c3cc(F)c(F)c(F)c3)ccc2N2CC[C@H]1C2` [Example 416], the “Tryp AVG EC1.5 (μM)” value was “C (EC1.5>25 μM)” and the Emax was under 150%.
For `O=C(Nc1cnccn1)N1c2nc(-c3cncc(Cl)c3)ccc2N2CCC[C@H]1C2` [Example 417], the “Tryp AVG EC1.5 (μM)” value was “A (EC1.5<1 μM)” and the Emax was at least 150%.
Consider `CS(=O)(=O)Nc1cccc(-c2ccc3c(n2)N(C(=O)Nc2cnccn2)[C@H]2CCN3C2)c1` [Example 418], for which the “Tryp AVG EC1.5 (μM)” value is on record as “B (EC1.5 1-25 μM)” and the Emax was at least 150%.
Take `N#Cc1cc(-c2ccc3c(n2)N(C(=O)Nc2cnccn2)[C@H]2CCN3C2)ccc1F` [Example 419]: the “Tryp AVG EC1.5 (μM)” value was “A (EC1.5<1 μM)” and the Emax was at least 150%.
Regarding `O=C(Nc1ccncn1)N1c2nc(N3CCCNCC3)ccc2N2CCC[C@H]1C2` [Example 420], the “Tryp AVG EC1.5 (μM)” value is “C (EC1.5>25 μM)” and the Emax is under 150%.
With `O=C(Nc1ccncc1F)N1c2nc(-c3cccc(Cl)c3)ccc2N2CCC[C@H]1C2` [Example 421], the “Tryp AVG EC1.5 (μM)” value is recorded as “A (EC1.5<1 μM)” and the Emax is at least 150%.
Taken in the same sequence, the figures for `O=C(Nc1ccncc1)N1c2nc(-c3ccnc(N4CC[C@H](F)C4)c3)ccc2N2CC[C@H]1C2` [Example 422] were “A (EC1.5<1 μM)” and at least 150%.
Consider `O=C(Nc1cnccn1)N1c2nc(-c3ccnc(N4CCC(F)(F)C4)c3)ccc2N2CC[C@H]1C2` [Example 423], for which the “Tryp AVG EC1.5 (μM)” value was “A (EC1.5<1 μM)” and the Emax is at least 150%.
With `COc1cc(NC(=O)N2c3nc(-c4ccnc(N5CC[C@@H](F)C5)c4)ccc3N3CC[C@H]2C3)ncn1` [Example 424], the “Tryp AVG EC1.5 (μM)” value was “B (EC1.5 1-25 μM)” and the Emax is at least 150%.
On to `O=C(Nc1ccc(F)cn1)N1c2nc(-c3ccnc(N4CCC(F)(F)C4)c3)ccc2N2CC[C@H]1C2` [Example 425], for which the “Tryp AVG EC1.5 (μM)” value was “A (EC1.5<1 μM)” and the Emax was at least 150%.
For the compound `N#Cc1ccccc1-c1ccc2c(n1)N(C(=O)Nc1cccnn1)[C@H]1CCCN2C1` [Example 426], the “Tryp AVG EC1.5 (μM)” value is listed as “B (EC1.5 1-25 μM)” and the Emax was at least 150%.
For the compound `Cc1nc(NC(=O)N2c3nc(-c4cncc(C(F)(F)F)c4)ccc3N3CCC[C@H]2C3)sc1C` [Example 427], the “Tryp AVG EC1.5 (μM)” value is reported as “A (EC1.5<1 μM)” and the Emax is at least 150%.
Turning to `O=C(CCCC[C@@H]1SCC2NC(=O)NC21)NCCCCCC(=O)NCc1ccc(NC(=O)N2c3nc(-c4cccc(C(F)(F)F)c4)ccc3N3CC[C@H]2C3)cc1` (stereo partly drawn) [Example 428], the “Tryp AVG EC1.5 (μM)” value is listed as “A (EC1.5<1 μM)” and the Emax was at least 150%.
For `NCc1ccc(NC(=O)N2c3nc(-c4cccc(C(F)(F)F)c4)ccc3N3CC[C@H]2C3)cc1` [Example 429], the “Tryp AVG EC1.5 (μM)” value is on record as “B (EC1.5 1-25 μM)” and the Emax was at least 150%.
With `O=C(CCCC[C@@H]1SCC2NC(=O)NC21)NCCCCCC(=O)NCc1ccc(NC(=O)N2c3nc(-c4cccc(C(F)(F)F)c4)ccc3N3CCC[C@H]2C3)cc1` (stereo partly drawn) [Example 430], the “Tryp AVG EC1.5 (μM)” value is “A (EC1.5<1 μM)” and the Emax is at least 150%.
Turning to `O=C(Nc1ccc(F)cn1)N1c2nc(-c3cncc(F)c3)ccc2N2CCC[C@H]1C2` [Example 431], the “Tryp AVG EC1.5 (μM)” value is “A (EC1.5<1 μM)” and the Emax was at least 150%.
The corresponding values for `O=C(Nc1cnccn1)N1c2nc(-c3cncc(F)c3)ccc2N2CCC[C@H]1C2` [Example 432] are “B (EC1.5 1-25 μM)” and at least 150%.
Turning to `CS(=O)(=O)N1CCCN(c2ccc3c(n2)N(C(=O)Nc2ccncn2)[C@H]2CCCN3C2)CC1` [Example 433], the “Tryp AVG EC1.5 (μM)” value was “B (EC1.5 1-25 μM)” and the Emax was at least 150%.
In the case of `CC(=O)N1CCCN(c2ccc3c(n2)N(C(=O)Nc2ccncn2)[C@H]2CCCN3C2)CC1` [Example 434], the “Tryp AVG EC1.5 (μM)” value was “C (EC1.5>25 μM)” and the Emax is under 150%.
The corresponding values for `O=C(Nc1cnccn1)N1c2nc(-c3ccc(Cl)c(C(F)(F)F)c3)ccc2N2CC[C@H]1C2` [Example 435] are “A (EC1.5<1 μM)” and at least 150%.
The corresponding values for `O=C(Nc1cnccn1)N1c2nc(-c3ccnc(N4CC[C@H](F)C4)c3)ccc2N2CC[C@H]1C2` [Example 436] are “A (EC1.5<1 μM)” and at least 150%.
Take `COc1cc(NC(=O)N2c3nc(-c4ccnc(N5CC[C@H](F)C5)c4)ccc3N3CC[C@H]2C3)ncn1` [Example 437]: the “Tryp AVG EC1.5 (μM)” value is recorded as “B (EC1.5 1-25 μM)” and the Emax was at least 150%.
In the case of `N#Cc1ccccc1-c1ccc2c(n1)N(C(=O)Nc1cccnc1)[C@H]1CCCN2C1` [Example 438], the “Tryp AVG EC1.5 (μM)” value is listed as “B (EC1.5 1-25 μM)” and the Emax is at least 150%.
Regarding `N#Cc1ccccc1-c1ccc2c(n1)N(C(=O)Nc1cncc(F)c1)[C@H]1CCCN2C1` [Example 439], the “Tryp AVG EC1.5 (μM)” value is “B (EC1.5 1-25 μM)” and the Emax was at least 150%.
Turning to `COc1cc(NC(=O)N2c3nc(-c4ccccc4C#N)ccc3N3CCC[C@H]2C3)ncn1` [Example 440], the “Tryp AVG EC1.5 (μM)” value is reported as “C (EC1.5>25 μM)” and the Emax was under 150%.
